In the experiment the target is T1, recombinant HIV reverse transcriptase (HIV RTR) (Human immunodeficiency virus type 1 group M subtype B, UniProt P04585).
T1 construct: recombinant HIV reverse transcriptase (HIV RTR)
As to the kind of experiment: Reverse Transcriptase Assay: incorporation of tritiated deoxyguanosine monophosphate into acid-precipitable cDNA. In kind it is biochemical. Particulars: purified HIV RTR; poly r(C).oligo d(G)12-18 and dGTP at about Km; 37° C. for 45 minutes; read-out: calculated IC50. The procedure: Reverse Transcriptase Assay
The assay measures the incorporation of tritiated deoxyguanosine monophosphate by recombinant HIV reverse transcriptase (HIV RTR) (or other RT) into acid-precipitable cDNA at the Km values of dGTP and poly r(C).cndot.oligo d(G)12-18. Compounds (I) and (II) inhibit this incorporation.
Thirty uL of a reaction mixture containing equal volumes of: 500 mM Tris.cndot.HCl (pH 8.2), 300 mM MgCl2, 1200 mM KCl, 10 mM DTT, 400 μg/mL poly r(c).cndot.oligo d(G) [prepared by dissolving 1.5 mg (25 U) poly r(C).cndot.oligo d(G) in 1.5 ml sterile distilled H2 O and diluting to 400 μg/ml], 0.1 μCi/μl [^3 H] dGTP, 160 μM dGTP, were added to 10 μl sterile distilled H2 O, 2.5 μl of potential inhibitor. Ten μL of 3.2 nM purified HIV RTR were added to start the reaction. The mixture was incubated at 37° C. for 45 minutes.
After incubation was complete, the tubes were cooled in ice for 5 minutes. Ice-cold 13% TCA containing 10 mM NaPPi (200 μl) was added and the mixture incubated on ice for 30 minutes. The precipitated cDNA was removed by filtration using presoaked glass filters [TCA, NaPPi ]. The precipitate was then washed with 1N HCl, 10 mM NaPPi. The filter discs were then counted in a scintillation counter. […]
Compounds (I) and (II) were evaluated using the methodology described above.

The structures appear in SMILES notation.

Drawing on US5169769A, “Method of hydroxylating substituted 3-aminopyridinones using mammalian tissue” (Merck & Co., Inc., priority 1991, dated 1992), this text covers IC50 for two molecules.

Regarding `Cc1[nH]c(=O)c(NCc2nc3c(C)ccc(C)c3o2)cc1C(C)O` (centres unmarked) [Compound (I), 3-[(4,7-dimethylbenzoxazol-2-yl)methylamino]-5-(1-hydroxyethyl)-6-methyl-2(1H)-pyridinone], the IC50 (commonly the concentration that gives 50% inhibition) was approximately 405 nM. In the case of `CCc1cc(NCc2nc3c(C)ccc(C)c3o2)c(=O)[nH]c1CO` [Compound (II), 3-[(4,7-dimethylbenzoxazol-2-yl)methylamino]-5-ethyl-6-hydroxymethyl-2(1H)-pyridinone] it was approximately 33 nM.
